The text below walks through data of patent publication US20230114357A1, “CONTINUOUS MELT-COATING OF ACTIVE PHARMACEUTICAL INGREDIENTS USING SURFACTANTS FOR DISSOLUTION ENHANCEMENT” (Rutgers,The State University of New Jersey, priority 2020, published 2023).

Molecules are shown by their SMILES. Values after ≈ are worked out from the molar mass of the structure shown.

Series [1] can be described thus: Powder bulk density of ibuprofen / 10% P407 powders. It counts as physicochemical. The conditions noted are these: ibuprofen combined with 10% Poloxamer 407, not subjected to heat and shear. Here is the method:
The screw configurations are shown below, where “C” represents conveying elements and “K” represents kneading elements: For each experiment, mean residence time, powder temperature, and powder bulk density were measured.

The conditions of series [2]: 50 mg powder, 10% cetylpyridinium chloride, 100 rpm, 900 ml deionized water; FIG. 7.
Description: Dissolution testing was performed on the following materials used or prepared herein in order to determine the percentage of carbamazepine released over time: • 10% cetylpyridinium chloride Treated • 10% cetylpyridinium chloride Physical Mix • Carbamazepine, no surfactant
In each test, 50 mg of powder was added to a dissolution vessel, and dissolution was conducted using the USP paddle method at 100 rpm in 900 ml of a buffer medium of deionized water.
The nature of series [3]: Dissolution testing of ibuprofen/poloxamer powders (USP paddle method). It counts as physicochemical. The conditions noted are these: 12 mg powder, 75 rpm, 900 ml 0.02 M hydrochloric acid pH 1.8; Ibuprofen 1, 2, 3; FIGS. 2-4.
Description: (§1) For each test, 12 mg of powder was added to a dissolution vessel, and dissolution was conducted using the USP paddle method at 75 rpm in 900 ml of a buffer medium comprising 0.02 M hydrochloric acid and having a pH of 1.8.
The nature of another series: physchem. The settings on record: pH 1.8, simulated gastric fluid.
Series [4] is described as follows: Dissolution testing of ibuprofen/polyoxyethylene stearate powders (USP paddle method). Format: physicochemical. The conditions noted are these: 12 mg powder, Ibuprofen 2, 10% polyoxyethylene stearate, 75 rpm, 900 ml 0.02 M hydrochloric acid pH 1.8; FIG. 6.
Description: (§2) In each test, 12 mg of powder was added to a dissolution vessel, and dissolution was conducted using the USP paddle method at 75 rpm in 900 ml of a buffer medium comprising 0.02 M hydrochloric acid and having a pH of 1.8.

Description for physchem: as §1, §2

As for `CC(C)Cc1ccc(C(C)C(=O)O)cc1` (stereo not shown) [Ibuprofen 2, ibuprofen], in series [1], the “Powder Bulk Density of 10% P407 Physical Mix” value stood at 0.374 g/ml.
`NC(=O)N1c2ccccc2C=Cc2ccccc21` [Uncoated carbamazepine, carbamazepine]: the “dissolution rate (percentage of carbamazepine released over time)” value in series [2] is on record as “poorest dissolution rate”.
As for `CC(C)Cc1ccc(C(C)C(=O)O)cc1` (stereo not shown) [Ibuprofen 3, ibuprofen], the “Powder Bulk Density of 10% P407 Physical Mix” value in series [1] is 0.382 g/ml.
On to `CC(C)Cc1ccc(C(C)C(=O)O)cc1` (stereo not shown) [Uncoated ibuprofen, ibuprofen], for which the entries for the “dissolution rate (percentage of ibuprofen released over time)” value in series [3] and in series [4] were “slowest dissolution rate” and “poorest dissolution rate”, respectively. This molecule also had a solubility in “physchem” of 53 µg/mL (≈ 257 µM).
For the molecule `CC(C)Cc1ccc(C(C)C(=O)O)cc1` (stereo not shown) [Ibuprofen 1, ibuprofen], the “Powder Bulk Density of 10% P407 Physical Mix” value in series [1] is 0.320 g/ml.
